Reference: patent US20230089506A1, “Herbicide Combinations Comprising Glufosinate and Fluthiacet-Methyl” (BASF SE, priority 2020, published 2023)

What was measured:
[1] = system: Conyza canadiensis (ERICA); assay: Greenhouse post-emergence weed control, percent injury vs untreated control; type: in vivo; conditions: 504 h
Description: (§1) Glufosinate was used as a commercial SL formulation containing 280 g ai/l of glufosinate (Liberty 280 SL, BASF). While the PPO herbicide Cadet containing 109 g ai/l fluthiacet-methyl was used (Cadet, FMC) formulation. • The evaluation for plant injury or damage caused by the chemical compositions was carried out using a scale from 0-100% when compared with the untreated control plants. Here, 0 means no damage and 100 means complete destruction of the plants.
(§2) 22., E=X+Y−(X*Y/100), where • X=effect in percent using herbicide A at an application rate of a; • Y=effect in percent using herbicide B at an application rate of b; • E=expected effect (in %) of A+B at application rates a+b.
(§3) The value E corresponds to the effect (plant damage or injury) which is to be expected if the activity of the individual compounds is just additive. If the observed effect is higher than the value E calculated according to Colby, a synergistic effect is present.
(§4) Seedlings of marestail (Conyza canadiensis; ERICA) and barnyardgrass (Echinochloa crusgalli; ECHCG) were treated with postemergence applications of either glufosinate at 246 g ai/ha, fluthiacet-methyl at 0.72 g ai/ha, or the combination of glufosinate (246 g ai/ha) and fluthiacet-methyl (0.72 g ai/ha), respectively, when they were 5-10 cm in height. All glufosinate treatments contained 1% (w/v) ammonium sulfate and solo fluthiacet-methyl treatments contained 1% (w/v) ammonium sulfate plus 1% (v/v) MSO surfactant. Plants were placed in a completely randomized design with four replications per treatment. Percent injury data was collected 21 days after treatment (DAT).

[2] = system: Echinochloa crus-galli (ECHCG); assay: as above; type: in vivo; conditions: 504 h
Description: as §1, §2, §3, §4

[3] = read-out: % activity, Solo Glufosinate (246 g ai/ha)

## CP(=O)(O)CCC(N)C(=O)O (racemic) [Glufosinate, (2RS)-2-amino-4-[hydroxy(methyl)phosphinoyl]butyric acid]
[1]; [3]
  inhibition at 246 g/ha: 58%
[2]; [3]
  inhibition at 246 g/ha: 53%

## COC(=O)CSc1cc(/N=c2\sc(=O)n3n2CCCC3)c(F)cc1Cl [Fluthiacet-methyl, fluthiacet-methyl]
[1]; ERICA seedlings 5-10 cm, postemergence, 0.72 g ai/ha, 21 DAT, 1% ammonium sulfate plus 1% MSO, scale 0-100%, read-out: % activity, Solo Fluthiacet-methyl (0.72 g ai/ha)
  inhibition at 0.72 g/ha: 23%
[2]; ECHCG seedlings 5-10 cm, postemergence, 0.72 g ai/ha, 21 DAT, 1% ammonium sulfate plus 1% MSO, scale 0-100%, read-out: % activity, Solo Fluthiacet-methyl (0.72 g ai/ha)
  inhibition at 0.72 g/ha: 20%
